In paper PMC11494505, “Asymmetric Monoreduction of α,β-Dicarbonyls to α-Hydroxy Carbonyls by Ene Reductases” (ACS Catalysis, 2024):
Blank lines part the entries; values can stand above or below the molecule they belong to.

Key:
XenA = target: T1, XenA (Pseudomonas putida, UniProt Q9R9V9); test: bioconversion to 7b, HPLC; assay type: biochemical; conditions: 10 mM substrate, 5 μM enzyme, 11 mM NADPH, 2% DMSO, pH 7.0, 30 °C, 6 h
T1 construct: recombinant in-house enzyme; details in supplement

TOYE = target: T2, TOYE (Thermoanaerobacter pseudethanolicus, UniProt B0KAH1); test: bioconversion to 7b, HPLC; assay type: biochemical; conditions: 10 mM substrate, 5 μM enzyme, 11 mM NADPH, 2% DMSO, pH 7.0, 30 °C, 6 h
T2 construct: gene Teth39_0012; recombinant in-house enzyme; details in supplement
T2 sequence (B0KAH1 entry or part of it): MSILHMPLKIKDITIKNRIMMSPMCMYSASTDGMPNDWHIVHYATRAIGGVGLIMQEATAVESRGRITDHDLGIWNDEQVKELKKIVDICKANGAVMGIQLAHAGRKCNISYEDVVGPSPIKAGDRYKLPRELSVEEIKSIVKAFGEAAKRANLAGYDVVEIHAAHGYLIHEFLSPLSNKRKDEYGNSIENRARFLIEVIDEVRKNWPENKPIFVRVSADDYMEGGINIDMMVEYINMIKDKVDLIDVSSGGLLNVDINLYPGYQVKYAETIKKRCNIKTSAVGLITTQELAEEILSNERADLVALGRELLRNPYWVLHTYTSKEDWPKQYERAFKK

YqjM = target: T3, YqjM (Bacillus subtilis, UniProt P54550); test: bioconversion to 7b, HPLC; assay type: biochemical; conditions: 10 mM substrate, 5 μM enzyme, 11 mM NADPH, 2% DMSO, pH 7.0, 30 °C, 6 h
T3 construct: gene namA; recombinant, purified; details in supplement
T3 sequence (P54550 2-338): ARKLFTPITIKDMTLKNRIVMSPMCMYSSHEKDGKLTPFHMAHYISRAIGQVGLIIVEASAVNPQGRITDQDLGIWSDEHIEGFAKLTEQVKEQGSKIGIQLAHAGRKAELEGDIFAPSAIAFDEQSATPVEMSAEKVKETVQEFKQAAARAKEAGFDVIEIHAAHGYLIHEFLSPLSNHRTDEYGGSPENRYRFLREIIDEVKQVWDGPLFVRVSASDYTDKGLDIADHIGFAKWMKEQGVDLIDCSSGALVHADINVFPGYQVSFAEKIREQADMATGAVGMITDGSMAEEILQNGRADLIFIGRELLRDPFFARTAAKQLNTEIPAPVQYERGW

OYE2 [1] = target: T4, OYE2 (Saccharomyces cerevisiae, UniProt Q03558); test: bioconversion to 7b, HPLC; assay type: biochemical; conditions: 10 mM substrate, 5 μM enzyme, 11 mM NADPH, 2% DMSO, pH 7.0, 30 °C, 6 h
T4 construct: wild type, N-terminal His-tag (pET-28a(+)), E. coli BL21 Gold(DE3), IMAC, FMN-loaded
T4 sequence (Q03558 whole entry): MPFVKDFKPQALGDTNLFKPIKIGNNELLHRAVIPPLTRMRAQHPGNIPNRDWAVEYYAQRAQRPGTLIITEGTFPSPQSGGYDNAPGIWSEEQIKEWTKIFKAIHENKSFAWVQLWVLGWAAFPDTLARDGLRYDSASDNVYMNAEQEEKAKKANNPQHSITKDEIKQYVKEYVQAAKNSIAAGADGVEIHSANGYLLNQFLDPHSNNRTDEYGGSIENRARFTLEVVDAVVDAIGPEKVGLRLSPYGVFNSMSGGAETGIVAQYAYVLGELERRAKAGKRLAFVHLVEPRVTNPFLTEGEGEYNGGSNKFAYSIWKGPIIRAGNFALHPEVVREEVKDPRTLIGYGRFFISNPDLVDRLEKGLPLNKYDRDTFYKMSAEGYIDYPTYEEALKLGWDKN

EPB1 = target: T5, EPB1 (Candida albicans, UniProt A0A1D8PPK1); test: bioconversion to 7b, HPLC; assay type: biochemical; conditions: 10 mM substrate, 5 μM enzyme, 11 mM NADPH, 2% DMSO, pH 7.0, 30 °C, 6 h
T5 construct: gene EBP1; wild type, N-terminal His-tag (pET-28a(+)), E. coli BL21 Gold(DE3); spelled EBP1 in Methods
T5 sequence (A0A1D8PPK1 whole entry): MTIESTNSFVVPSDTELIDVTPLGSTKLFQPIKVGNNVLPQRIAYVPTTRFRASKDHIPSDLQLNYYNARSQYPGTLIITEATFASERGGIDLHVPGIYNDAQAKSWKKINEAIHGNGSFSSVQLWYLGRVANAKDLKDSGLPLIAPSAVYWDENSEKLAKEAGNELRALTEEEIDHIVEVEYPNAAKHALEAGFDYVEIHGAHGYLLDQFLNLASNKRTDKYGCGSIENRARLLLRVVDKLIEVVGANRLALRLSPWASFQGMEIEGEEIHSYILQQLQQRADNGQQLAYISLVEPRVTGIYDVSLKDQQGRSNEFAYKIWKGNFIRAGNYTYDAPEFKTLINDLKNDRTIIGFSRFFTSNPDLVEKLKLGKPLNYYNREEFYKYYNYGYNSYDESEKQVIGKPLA

PETNR = target: T6, PETNR (Enterobacter cloacae, UniProt P71278); test: bioconversion to 7b, HPLC; assay type: biochemical; conditions: 10 mM substrate, 5 μM enzyme, 11 mM NADPH, 2% DMSO, pH 7.0, 30 °C, 6 h
T6 construct: gene onr; recombinant in-house enzyme; details in supplement
T6 sequence (P71278 entry or part of it): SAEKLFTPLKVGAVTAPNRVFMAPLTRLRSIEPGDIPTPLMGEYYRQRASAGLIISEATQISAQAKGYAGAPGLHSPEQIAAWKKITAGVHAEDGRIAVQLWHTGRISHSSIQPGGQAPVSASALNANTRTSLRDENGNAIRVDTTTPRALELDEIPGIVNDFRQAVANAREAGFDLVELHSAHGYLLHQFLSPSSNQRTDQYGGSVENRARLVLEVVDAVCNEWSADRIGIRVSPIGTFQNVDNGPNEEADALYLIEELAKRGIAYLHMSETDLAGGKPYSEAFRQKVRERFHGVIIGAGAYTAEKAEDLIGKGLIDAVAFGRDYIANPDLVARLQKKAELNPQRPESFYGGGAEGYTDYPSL

TsOYE = target: T7, TsOYE (Thermus scotoductus, UniProt B0JDW3); test: bioconversion to 7b, HPLC; assay type: biochemical; conditions: 10 mM substrate, 5 μM enzyme, 11 mM NADPH, 2% DMSO, pH 7.0, 30 °C, 6 h
T7 construct: gene chrR; wild type, pET-28a(+), E. coli BL21 Gold(DE3), N-terminal His-tag, heat purified (70 °C)

GluER [2] = target: T8, GluER (Gluconobacter oxydans, UniProt Q5FTL6); test: bioconversion to 7b and 7c, HPLC / GC; assay type: biochemical; conditions: 10 mM substrate, 5 μM enzyme, 1.1 eq. NADPH, 2% DMSO, pH 7.0, 30 °C, 6 h
T8 construct: gene GOX0502; wild type, N-terminal His-tag (pET-28a(+)), E. coli BL21 Gold(DE3), IMAC, FMN-loaded
T8 sequence (Q5FTL6 entry or part of it): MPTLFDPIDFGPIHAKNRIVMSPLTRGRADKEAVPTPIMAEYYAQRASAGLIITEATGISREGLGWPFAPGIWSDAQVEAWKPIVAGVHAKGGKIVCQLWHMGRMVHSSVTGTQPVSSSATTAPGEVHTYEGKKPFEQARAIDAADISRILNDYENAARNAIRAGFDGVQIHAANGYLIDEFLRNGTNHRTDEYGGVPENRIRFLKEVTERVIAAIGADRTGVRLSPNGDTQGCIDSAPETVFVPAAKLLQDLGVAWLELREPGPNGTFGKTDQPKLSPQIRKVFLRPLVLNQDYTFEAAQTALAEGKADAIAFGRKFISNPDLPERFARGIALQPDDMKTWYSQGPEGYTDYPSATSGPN

OYE2 [3] = target: T4, OYE2; test: bioconversion, GC; assay type: biochemical; conditions: 10 mM substrate, 5 μM enzyme, 11 mM NADPH, 2% DMSO, pH 7.0, 30 °C, 6 h; product detected as 8c by GC
GluER [4] = target: T8, GluER; test: bioconversion to 2-hydroxyhexan-3-one, chiral GC; assay type: biochemical; conditions: 10 mM substrate, 5 μM enzyme, 1.1 eq. NADPH, 2% DMSO, pH 7.0, 30 °C, 6 h
CC(=O)C(=O)c1ccccc1 = test system: T9, CC(=O)C(=O)c1ccccc1; test: steady-state Michaelis-Menten kinetics; assay type: biochemical, Saccharomyces cerevisiae; conditions: NADPH as cofactor
T9 construct: wild type, N-terminal His-tag (pET-28a(+)), E. coli BL21 Gold(DE3), IMAC, FMN-loaded

T1 sequence (Q9R9V9 entry or part of it): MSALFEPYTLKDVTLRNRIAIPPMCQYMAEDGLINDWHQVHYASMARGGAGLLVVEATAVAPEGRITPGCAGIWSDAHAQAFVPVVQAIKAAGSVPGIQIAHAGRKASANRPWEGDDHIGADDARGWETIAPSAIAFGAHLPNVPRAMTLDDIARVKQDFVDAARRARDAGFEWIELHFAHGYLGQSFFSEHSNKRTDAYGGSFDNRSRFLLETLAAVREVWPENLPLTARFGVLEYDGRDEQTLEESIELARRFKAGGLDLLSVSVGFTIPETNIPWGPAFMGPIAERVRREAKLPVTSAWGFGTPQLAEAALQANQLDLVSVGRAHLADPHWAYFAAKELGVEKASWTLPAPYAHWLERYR

Molecule: CC(=O)C(=O)c1ccccc1 [7a, 1-phenyl-1,2-propanedione]
bioconversion to 7b, HPLC (XenA): class III (TsOYE, XenA, TOYE, YqjM)
bioconversion to 7b, HPLC (TOYE): class III (TsOYE, XenA, TOYE, YqjM)
bioconversion to 7b, HPLC (YqjM): class III (TsOYE, XenA, TOYE, YqjM)
bioconversion to 7b, HPLC (OYE2 [1]): Nine of the enzymes produced the single product 7b
bioconversion to 7b, HPLC (EPB1): class II (OYE3, OYE2, EPB1)
bioconversion to 7b, HPLC (PETNR): Nine of the enzymes produced the single product 7b; class I (PETNR, NCR)
bioconversion to 7b, HPLC (TsOYE): class III (TsOYE, XenA, TOYE, YqjM)
bioconversion to 7b and 7c, HPLC / GC (GluER [2]): GluER was the most versatile ERED, able to reduce 1a–5a, 7a, and 8a

Molecule: O=CC(=O)c1ccccc1 [8a, phenylglyoxal]
bioconversion, GC (OYE2 [3]): could confirm excellent conversions with 8a

% conversion (GluER [4]): 19%
Molecule: CCCC(=O)C(C)=O [2a, 2,3-hexanedione]

Molecule: OYE3 (Saccharomyces cerevisiae S288C)
Km (CC(=O)C(=O)c1ccccc1): 2460 ± 250 µM
kcat (CC(=O)C(=O)c1ccccc1): 0.71 ± 0.03 s⁻¹
